In US20240376099A1, “COMPOUNDS AND COMPOSITIONS AS INHIBITORS OF ENDOSOMAL TOLL-LIKE RECEPTORS” (Novartis AG, priority 2016, published 2024):
pIC50: −log10 of the molar value.

The compounds below were run against T1, TLR9 (Homo sapiens, UniProt Q9NR96) (assay: huPBMC TLR9 Antagonist IFNα Assay). Conditions: human PBMCs stimulated with ODN2216 0.3 μM, 14-16 hrs; IFNα2b AlphaLISA read-out.
T1 construct: Fresh blood was collected from normal human donors; endogenous in cells; host or cells: human PBMCs from fresh donor blood
T1 sequence (Q9NR96 26-1032): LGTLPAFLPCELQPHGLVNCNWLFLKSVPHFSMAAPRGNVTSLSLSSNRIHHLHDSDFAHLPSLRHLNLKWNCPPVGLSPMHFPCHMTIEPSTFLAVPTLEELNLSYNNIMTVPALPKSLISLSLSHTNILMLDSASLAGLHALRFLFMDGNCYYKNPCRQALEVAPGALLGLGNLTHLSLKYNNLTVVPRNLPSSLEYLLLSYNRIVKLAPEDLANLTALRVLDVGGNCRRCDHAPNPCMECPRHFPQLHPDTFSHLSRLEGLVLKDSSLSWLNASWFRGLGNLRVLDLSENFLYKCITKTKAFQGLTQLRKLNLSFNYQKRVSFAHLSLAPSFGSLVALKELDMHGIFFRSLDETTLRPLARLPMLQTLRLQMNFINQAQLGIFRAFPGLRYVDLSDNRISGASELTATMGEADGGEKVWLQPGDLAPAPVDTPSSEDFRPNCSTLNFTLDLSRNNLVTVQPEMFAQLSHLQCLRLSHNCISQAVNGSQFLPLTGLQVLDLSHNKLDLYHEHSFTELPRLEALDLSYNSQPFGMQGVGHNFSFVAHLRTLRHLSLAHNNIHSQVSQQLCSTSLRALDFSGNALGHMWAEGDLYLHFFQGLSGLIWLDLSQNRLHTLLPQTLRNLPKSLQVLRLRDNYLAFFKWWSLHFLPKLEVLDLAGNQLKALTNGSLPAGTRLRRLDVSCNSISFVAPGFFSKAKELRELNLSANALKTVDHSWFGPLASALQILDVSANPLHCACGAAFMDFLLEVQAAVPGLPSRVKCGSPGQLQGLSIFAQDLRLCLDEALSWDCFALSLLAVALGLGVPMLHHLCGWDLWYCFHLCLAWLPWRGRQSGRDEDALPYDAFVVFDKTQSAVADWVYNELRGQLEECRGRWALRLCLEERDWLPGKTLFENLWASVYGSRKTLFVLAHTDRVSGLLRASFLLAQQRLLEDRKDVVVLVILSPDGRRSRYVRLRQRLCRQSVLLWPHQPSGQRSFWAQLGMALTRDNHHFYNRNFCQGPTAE
Assay type: cell-based
Summary of the method: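 Human PBMCs from fresh donor blood (150,000 cells/well) stimulated 14–16 h at 37 °C with DOTAP-complexed ssRNA40 (final 1 μg/ml for TLR8, 10 μg/mL for TLR7) or ODN2216 (final 0.3 μM, TLR9), 0.25% DMSO, ten-point 1/3 compound dilutions. Supernatant IL-6 read by HTRF (TLR8); IFNα by IFNα2b AlphaLISA (TLR7/TLR9).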

SMILES | pIC50
[2H]C([2H])([2H])N(CC(=O)NC12CCC(Cn3nc(C)c4c3CCN(c3cc(C)nc5c3cnn5C)C4)(CC1)CC2)C([2H])([2H])[2H] [compound 134, 2-(bis(trideuteromethyl)amino)-N-(4-((5-(1,6-dimethyl-1H-pyrazolo[3,4-b]pyridin-4-yl)-3-methyl-4,5,6,7-tetrahydro-1H-pyrazolo[4,3-c]pyridin-1-yl)methyl)bicyclo[2.2.2]octan-1-yl)acetamide] | 6.52
Cc1nc(N2CCc3c(c(C)nn3CC34CCC(NC(=O)CCN(C)C)(CC3)CC4)C2)c2c(n1)c(C)nn2C [compound 24, 3-(dimethyalmino)-N-(4-((3-methyl-5-(1,3,5-trimethyl-1H-pyrazolo[4,3-d]pyrimidin-7-yl)-4,5,6,7-tetrahydro-1H-pyrazolo[4,3-c]pyridin-1-yl)methyl)bicyclo[2.2.2]octan-1-yl)propanamide] | < 5.13
Cc1nc(N2CCc3c(c(C)nn3CC34CCC(N(C5CCC5)C5CCC5)(CC3)CC4)C2)c2c(n1)c(C)nn2C [compound 28, N,N-dicyclobutyl-4-((3-methyl-5-(1,3,5-trimethyl-1H-pyrazolo[4,3-d]pyrimidin-7-yl)-4,5,6,7-tetrahydro-1H-pyrazolo[4,3-c]pyridin-1-yl)methyl)bicyclo[2.2.2]octan-1-amine] | < 5.00
Cc1nc(N2CCc3c(c(C)nn3CC34CCC(NCC5COC5)(CC3)CC4)C2)c2c(n1)c(C)nn2C [compound 23, 4-((3-methyl-5-(1,3,5-trimethyl-1H-pyrazolo[4,3-c]pyrimidin-7-yl)-4,5,6,7-tetrahydro-1H-pyrazolo[4,3-c]pyridin-1-yl)methyl)-N-(oxetan-3-ylmethyl)bicyclo[2.2.2]octan-1-amine] | < 5.00
Cc1nn(CC23CCC(N)(CC2)CC3)c2c1CN(c1nc(Cl)nc3cnn(C)c13)CC2 [compound 15, 4-((5-(5-chloro-1-methyl-1H-pyrazolo[4,3-d]pyrimidin-7-yl)-3-mehtyl-4,5,6,7-tetrahydro-1H-pyrazolo[4,3-c]pyridin-1-yl)methyl)bicyclo[2.2.2]octan-1-amine] | 5.90
Cc1cc(N2CCc3c(c(C)nn3CC34CCC(N5CCOC[C@H]5C)(CC3)CC4)C2)c2cnn(C)c2n1 [compound 129, (R)-4-(4-((5-(1,6-dimethyl-1H-pyrazolo[3,4-b]pyridin-4-yl)-3-methyl-4,5,6,7-tetrahydro-1H-pyrazolo[4,3-c]pyridin-1-yl)methyl)bicyclo[2.2.2]octan-1-yl)-3-methylmorpholine] | 5.98
Cc1nc(N2CCc3c(c(C)nn3CC34CCC(N5CCCCC5)(CC3)CC4)C2)c2cn[nH]c2n1 [compound 29, 6-methyl-4-(3-methyl-1-((4-(piperidin-1-yl)bicyclo[2.2.2]octan-1-yl)methyl)-6,7-dihydro-1H-pyrazolo[4,3-c]pyridin-5(4H)-yl)-1H-pyrazolo[3,4-d]pyrimidine] | < 5.00
Cc1cc(N2CCc3c(c(C)nn3CC34CCC(NC(=O)CN5CC(F)C5)(CC3)CC4)C2)c2cnn(C)c2n1 [Compound No. 133, N-(4-((5-(1,6-dimethyl-1H-pyrazolo[3,4-b]pyridin-4-yl)-3-methyl-4,5,6,7-tetrahydro-1H-pyrazolo[4,3-c]pyridin-1-yl)methyl)bicyclo[2.2.2]octan-1-yl)-2-(3-fluoroazetidin-1-yl)acetamide] | 5.94
Cc1nc(N2CCc3c(c(C)nn3CC34CCC(N5CCOCC5)(CC3)CC4)C2)c2c(n1)c(C)nn2C [compound 25, 4-(4-((3-methyl-5-(1,3,5-trimethyl-1H-pyrazolo[4,3-d]pyrimidin-7-yl)-4,5,6,7-tetrahydro-1H-pyrazolo[4,3-c]pyridin-1-yl)methyl)bicyclo[2.2.2]octan-1-yl)morpholine] | < 5.09
Cc1cc(N2CCc3c(c(C)nn3CC34CCC(NCC(=O)N5CCCC5)(CC3)CC4)C2)c2cnn(C)c2n1 [compound 106, 2-((4-((5-(1,6-dimethyl-1H-pyrazolo[3,4-b]pyridin-4-yl)-3-methyl-4,5,6,7-tetrahydro-1H-pyrazolo[4,3-c]pyridin-1-yl)methyl)bicyclo[2.2.2]octan-1-yl)amino)-1-(pyrrolidin-1-yl)ethanone] | 5.57
Cc1nc(N2CCc3c(c(C)nn3CC34CCC(NCC5(CO)COC5)(CC3)CC4)C2)c2c(n1)c(C)nn2C [compound 31, (3-(((4-((3-methyl-5-(1,3,5-trimethyl-1H-pyrazolo[4,3-d]pyrimidin-7-yl)-4,5,6,7-tetrahydro-1H-pyrazolo[4,3-c]pyridin-1-yl)methyl)bicyclo[2.2.2]octan-1-yl)amino)methyl)oxetan-3-yl)methanol] | 5.63
Cc1cc(N2CCc3c(c(C)nn3CC34CCC(N5C[C@H](C)O[C@@H](C)C5)(CC3)CC4)C2)c2cnn(C)c2n1 [compound 111, (2S,6S)-4-(4-((5-(1,6-dimethyl-1H-pyrazolo[3,4-b]pyridin-4-yl)-3-methyl-4,5,6,7-tetrahydro-1H-pyrazolo[4,3-c]pyridin-1-yl)methyl)bicyclo[2.2.2]octan-1-yl)-2,6-dimethylmorpholine] | 5.85
Cn1ncc2c(N3CCc4c(cnn4CC45CCC(N)(CC4)CC5)C3)nc(N)nc21 [compound 11, 4-(1-((4-aminobicyclo[2.2.2]octan-1-yl)methyl)-6,7-dihydro-1H-pyrazolo[4,3-c]pyridin-5(4H)-yl)-1-methyl-1H-pyrazolo[3,4-d]pyrimidin-6-amine] | < 5.18
COCCNC12CCC(Cn3nc(C)c4c3CCN(c3cc(C)nc5c3cnn5C)C4)(CC1)OC2 [compound 102, 1-((5-(1,6-dimethyl-1H-pyrazolo[3,4-b]pyridin-4-yl)-3-methyl-4,5,6,7-tetrahydro-1H-pyrazolo[4,3-c]pyridin-1-yl)methyl)-N-(2-methoxyethyl)-2-oxabicyclo[2.2.2]octan-4-amine] | 5.91
Cc1nc(N2CCc3c(c(C)nn3CC34CCC(N5CCCCC5)(CC3)CC4)C2)c2cnn(C)c2n1 [compound 39, 1,6-dimethyl-4-(3-methyl-1-((4-(piperidin-1-yl)bicyclo[2.2.2]octan-1-yl)methyl)-6,7-dihydro-1H-pyrazolo[4,3-c]pyridin-5(4H)-yl)-1H-pyrazolo[3,4-c]pyrimidine] | < 5.00
Cc1cc(N2CCc3c(c(C)nn3CC34CCC(N5CCOC[C@@H]5C)(CC3)CC4)C2)c2cnn(C)c2n1 [compound 128, (S)-4-(4-((5-(1,6-dimethyl-1H-pyrazolo[3,4-b]pyridin-4-yl)-3-methyl-4,5,6,7-tetrahydro-1H-pyrazolo[4,3-c]pyridin-1-yl)methyl)bicyclo[2.2.2]octan-1-yl)-3-methylmorpholine] | 6.10
Cc1nc(N2CCc3c(c(C)nn3CC34CCC(N)(CC3)CC4)C2)c2c(n1)c(C)nn2C [Compound No. 26, 4-((3-methyl-5-(1,3,5-trimethyl-1H-pyrazolo[4,3-d]pyrimidin-7-yl)-4,5,6,7-tetrahydro-1H-pyrazolo[4,3-c]pyridin-1-yl)methyl)bicyclo[2.2.2]octan-1-amine] | < 6.00
Cc1nc(N2CCc3c(c(C)nn3CC34CCC(N5CCOCC5)(CC3)CC4)C2)c2cnn(C)c2n1 [compound 19, 4-(4-((5-(1,6-dimethyl-1H-pyrazolo[3,4-d]pyrimidin-4-yl)-3-methyl-4,5,6,7-tetrahydro-1H-pyrazolo[4,3-c]pyridin-1-yl)methyl)bicyclo[2.2.2]octan-1-yl)morpholine] | < 5.00
Cc1cc(N2CCc3c(c(C)nn3CC34CCC(NC(=O)CN5CC(O)C5)(CC3)CC4)C2)c2cnn(C)c2n1 [Compound No. 136, N-(4-((5-(1,6-dimethyl-1H-pyrazolo[3,4-b]pyridin-4-yl)-3-methyl-4,5,6,7-tetrahydro-1H-pyrazolo[4,3-c]pyridin-1-yl)methyl)bicyclo[2.2.2]octan-1-yl)-2-(3-hydroxyazetidin-1-yl)acetamide] | 5.93
[2H]C([2H])([2H])N(C([2H])([2H])[2H])C12CCC(Cn3nc(C)c4c3CCN(c3nc(C)nc5c(C)nn(C)c35)C4)(CC1)CC2 [compound 40, 4-((3-methyl-5-(1,3,5-trimethyl-1H-pyrazolo[4,3-d]pyrimidin-7-yl)-4,5,6,7-tetrahydro-1H-pyrazolo[4,3-c]pyridin-1-yl)methyl)-N,N-bis(trideuteromethyl)bicyclo[2.2.2]octan-1-amine] | 5.60
